Experimental findings from PubChem BioAssay AID1794831 are described below.

The target in this assay is Solute carrier family 2, facilitated glucose transporter member 9 (Homo sapiens) (UniProt Q9NRM0). Briefly: SLC2A9 substrate-evoked membrane potential change, dose response, cell-based, membrane potential dye, HEK-293, SLC2A9 overexpression (AID 1794831). To be noted: HEK-293 SLC2A9 OE, FLIPR membrane potential dye.
Sequence of Solute carrier family 2, facilitated glucose transporter member 9 (Homo sapiens) (Q9NRM0 whole entry, looked up): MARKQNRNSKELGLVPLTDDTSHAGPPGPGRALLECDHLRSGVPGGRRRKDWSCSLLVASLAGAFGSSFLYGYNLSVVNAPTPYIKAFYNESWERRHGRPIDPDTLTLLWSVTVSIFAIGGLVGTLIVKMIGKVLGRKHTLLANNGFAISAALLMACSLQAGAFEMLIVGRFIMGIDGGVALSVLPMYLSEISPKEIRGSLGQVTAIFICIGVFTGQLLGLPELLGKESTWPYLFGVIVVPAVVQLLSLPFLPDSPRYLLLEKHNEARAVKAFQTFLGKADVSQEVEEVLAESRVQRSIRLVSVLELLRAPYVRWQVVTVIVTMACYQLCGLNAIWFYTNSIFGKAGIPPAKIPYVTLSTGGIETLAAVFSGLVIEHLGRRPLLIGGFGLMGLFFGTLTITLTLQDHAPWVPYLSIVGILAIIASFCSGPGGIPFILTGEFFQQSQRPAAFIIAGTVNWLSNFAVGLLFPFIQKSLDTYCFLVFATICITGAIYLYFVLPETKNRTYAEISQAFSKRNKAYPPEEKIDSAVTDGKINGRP

As to `O=c1[nH]c(=O)c2[nH]c(=O)[nH]c2[nH]1`, the EC50 was 300 µM.

As for `O=C(O)c1cc(=O)[nH]c(=O)[nH]1`, the EC50 is 1000 µM.
